One data set deals with HT-29 colon cancer cells. Put plainly: Antiproliferation assay in HT-29 cells (CellTiter Glo). It is filed as cell-based. Particulars: Homo sapiens, 72 hours or 144 hours. As for the experimental part: [The source words this procedure for another cell line and reports this cell line under the same test.] (§1) In vitro anti-proliferation study of test compounds in A375 cell line by CellTiter Glo. The cells were routinely maintained as a monolayer culture in corresponding culture medium, at 37° C. with 5% CO2 in air.
(§2) Exponential growth cells were harvested by trypsin-EDTA digestion. Cell pellet was re-suspended in fresh culture medium, and the concentration adjusted as needed (the cell density per well was listed in following form). The cell viability was over 98% by Trypan blue staining. Cells were incoluated into 96 wells plates according to the plate map (90 μL/well). Plates were incubated at 37° C. and 5% CO2 overnight. The next day, the 10×compound containing medium was prepared according to the plate map. 10 μL of 10×compound containing medium was transferred into each well of the assay plates (the final DMSO concentration was 0.5%). The medium was gently mixed and incubated at 37° C. and 5% CO2 for another 72 hours or 144 hours.
(§3) Reagent was prepared according to the manufacture's instruction. 50 μL CellTiter-Glo Reagent were added in each well. Contents were mixed for 2 minutes on an orbital shaker to induce cell lysis. The plate was incubated at room temperature for 10 minutes to stabilize luminescent signal. 100 μL of reaction contents were transferred of each well from the clear plates into white walled/white opaque 96-well plates. Luminescence was recorded on Envision.
(§4) Using the luminescence measurements [time zero (T0), control growth (C), and test growth in the presence of drug at the six concentration levels (Ti)], the percentage growth was calculated at each of the drug concentrations levels.
(§5) Percentage growth inhibition (GI) was calculated as: GI (%)=[(Ti−T0)/(C-T0)]×100 for concentrations for which Ti>=T0, and GI (%)=[(Ti−T0)/T0]×100 for concentrations for which Ti<T0. Data were analyzed using the XLFit (Excel) tool, fitting to a 4-parameter equation to generate concentration response curves. Concentration of compound that inhibits 50% of control cell growth (GI50) was back-interpolated when y=50% of net growth of DMSO treated control wells using nonlinear regression with the equation: f(x) 205 [fit=(A+((B−A)/(1+((C/x)^D))))], where A is the minimum response (Ymin), B is the maximum response (Ymax), C is the inflection point of the curve (Re GI50) and D is the Hill coefficient. Growth inhibition of 50% (GI50) was calculated at the 50% Growth inhibition on the curve. Index values were the sum of Inhibition rate (IR) at each tested compound concentration.
(In general: ATP-based viability assays read luminescence as a measure of living cells.)

For another data set, the system named is A375 melanoma cells. Put plainly: Antiproliferation assay in A375 cell line by CellTiter Glo. In kind it is cell-based. Particulars: Homo sapiens, A-375, 72 hours or 144 hours. As for the experimental part:
as §1, §2, §3, §4, §5

Data set [1] in a line: Caco-2 permeability assay. Conditions: human; for efflux ratio at 120 min: Caco-2; for Papp A→B at 120 min: Caco-2, apical to basolateral; for Papp A→B at 120 min / Papp B→A at 120 min: 1-30 uM; for Papp B→A at 120 min: Caco-2, basolateral to apical. In kind it is in vitro ADME. As for the experimental part: Caco-2 cells are widely used as an in vitro assay to measure the permeability of a drug compound. The Caco-2 cell line is derived from a human colorectal carcinoma, and when cultured, the cells spontaneously differentiate into monolayers of polarized enterocytes. Caco-2 cells express P-glycoprotein and breast cancer resistance protein, two of the most relevant cell membrane active transporters that affect drug compound's permeability into cells and blood brain barrier.
The cells were seeded on Millipore Millicell plates and formed a confluent monolayer over 20 days prior to the experiment. On day 20, the test compound (1-30 uM concentration) was added to the apical side of the membrane and the transport of the compound across the monolayer was monitored over a 120 minutes time period. To study drug efflux, it was also necessary to investigate transport of the compound from the basolateral compartment to the apical compartment.
(§6) The permeability coefficient (Papp) was calculated from the following equation: […]
where dQ/dt is the rate of permeation of the drug across the cells, C0 is the donor compartment concentration at time zero and A is the area of the cell monolayer. C0 is obtained from analysis of the dosing solution at the start experiment.
A general note: Passage across Caco-2 layers is used to estimate intestinal permeability.

The nature of data set [2]: Mouse pharmacokinetics study. It is filed as in vivo. Conditions: CD-1 mice; for F / AUC / Cmax / Tmax: PO 25 mg/kg; for Vd / half-life / clearance / AUC / Cmax / Tmax: mouse, plasma; for Vd / half-life / clearance: IV 5 mg/kg; for half-life: 20% Hydroxypropyl-beta-cyclodextrin; for clearance: read-out: Clp. The text has this: The pharmacokinetic properties of Compounds 5 and 6 was studied in CD-1 mice via intravenous and oral administration by using a standard protocol. The test articles were formulated in 20% Hydroxypropyl-beta-cyclodextrin, either as a clear solution or fine suspension.

Another data set deals with P-glycoprotein (MDR1). Put plainly: MDCK-MDR1 permeability assay. It is filed as in vitro ADME, canine. Conditions: dog; for efflux ratio at 120 min: MDCK-MDR1, Papp(B−A)/Papp(A−B); for Papp A→B at 120 min: MDCK-MDR1, apical to basolateral; for Papp A→B at 120 min / Papp B→A at 120 min: 1-30 μM; for Papp B→A at 120 min: MDCK-MDR1, basolateral to apical. On the procedure: MDCK-MDR1 cells originated from transfection of Madin Darby canine kidney (MDCK) cells with the MDR1 gene, the gene encoding for the efflux protein, P-glycoprotein. This cell line is ideal for identifying substrates of P-gp, with or without an inhibitor. The cells were seeded on a Multiscreen™ plate to form a confluent monolayer over 4 days prior to the experiment. On day 4, the test compound (1-30 μM concentration) was added to the apical side of the membrane and the transport of the compound across the monolayer was monitored over a 120 minutes time period. To study drug efflux, it was also necessary to investigate transport of the compound from the basolateral compartment to the apical compartment and calculate an efflux ratio.
as §6
where dQ/dt is the rate of permeation of the drug across the cells, C0 is the donor compartment concentration at time zero and A is the area of the cell monolayer.
An efflux ratio was calculated from the mean apical to basolateral (A−B) Papp data and basolateral to apical (B−A) Papp data.
Efflux Ratio=Papp(B−A)/Papp(A−B)

A value given as a limit tells only on which side of the number the result lay.

Broadly, the GI50 is the concentration that inhibits growth by half. Low readings indicate greater sensitivity of the cells, high ones lower sensitivity of the cells. For orientation: efflux ratio means a quotient of directional permeabilities that is used to spot active efflux. What is called Papp A→B is how fast a substance crosses the layer from the apical side. As a reminder, the Papp B→A is how fast a substance crosses the layer from the basolateral side. As a reminder, the Vd is the apparent volume that relates the amount in the body to the concentration in plasma or blood. Low values mean confinement near the circulation, high ones extensive tissue distribution. In general, half-life refers to how long it takes for the measured level to halve. Low readings indicate rapid decline, high ones slow decline. In general, AUC refers to concentration integrated over time. In general, Cmax refers to the maximum level reached in the sampled fluid or tissue. Usually Tmax stands for the time at which the peak concentration occurs. Take `CCN1CC(NC(=O)c2c(F)cncc2Nc2ccc(I)cc2F)C1` [Compound 6, N-(1-ethylazetidin-3-yl)-3-fluoro-5-((2-fluoro-4-iodophenyl)amino)isonicotinamide]: the GI50 in the data set with HT-29 colon cancer cells is < 100 nM. Besides, the GI50 in the data set with A375 melanoma cells is < 100 nM. In addition, in data set [1], the efflux ratio at 120 min was found to be 0.47, the Papp A→B at 120 min was determined as 89.3 ×10⁻⁶ cm/s and the basolateral-to-apical permeability (Papp B→A) at 120 min was found to be 42.3 ×10⁻⁶ cm/s. Moreover, in data set [2], the F came out at 62.1 ± 11.4%, the volume of distribution (Vd) came to 4.2 ± 0.33 L/kg, the half-life was 37.5 ± 2.58 min and the clearance worked out at 77.8 ± 8 mL/min/kg. Besides, in data set [2], the AUC was determined as 3160 ± 641 ng·h/mL, the peak concentration (Cmax) stood at 1070 ± 328 ng/mL and the Tmax came to 30 min. Also, in the data set on P-glycoprotein (MDR1), the efflux ratio at 120 min turned out to be 0.53, the Papp A→B at 120 min came to 34.1 ×10⁻⁶ cm/s and the Papp B→A at 120 min came out at 18 ×10⁻⁶ cm/s.

In turn, `O=C(O)CCCN1CC(NC(=O)c2ccncc2Nc2ccc(I)cc2F)C1` [Compound 19, 4-(3-(3-((2-fluoro-4-iodophenyl)amino)isonicotinamido)azetidin-1-yl)butanoic acid] showed a GI50 with A375 melanoma cells of 100 to 1000 nM.

Turning to `O=C(NC1CNC1)c1ccncc1Nc1ccc(I)cc1F` [Compound 15, N-(azetidin-3-yl)-3-((2-fluoro-4-iodophenyl)amino)isonicotinamide], the GI50 in the data set with HT-29 colon cancer cells was < 100 nM.

On to `O=C(NC1CCCNC1)c1c(F)cc(F)cc1Nc1ccc(I)cc1F` (stereo not shown) [Compound 3, 2,4-difluoro-6-((2-fluoro-4-iodophenyl)amino)-N-(piperidin-3-yl)benzamide], for which the 50% growth inhibitory concentration (GI50) in the data set with A375 melanoma cells was > 1000 nM.

Regarding `C#Cc1ccc(Nc2cncc(F)c2C(=O)NC2CN(CC)C2)c(F)c1` [Compound 12, N-(1-ethylazetidin-3-yl)-3-((4-ethynyl-2-fluorophenyl)amino)-5-fluoroisonicotinamide], the concentration for 50% growth inhibition (GI50) with HT-29 colon cancer cells and with A375 melanoma cells was 100 to 1000 nM throughout.

`CC(=O)N1CC(NC(=O)c2c(F)cncc2Nc2ccc(I)cc2F)C1` [Compound 20, N-(1-acetylazetidin-3-yl)-3-fluoro-5-((2-fluoro-4-iodophenyl)amino)isonicotinamide]: the GI50 in the data set with A375 melanoma cells is > 1000 nM.

`O=C(NC1CNC1)c1c(F)c(F)c(F)c(F)c1Nc1ccc(I)cc1F` [Compound 4, N-(azetidin-3-yl)-2,3,4,5-tetrafluoro-6-((2-fluoro-4-iodophenyl)amino)benzamide]: the values for the concentration for 50% growth inhibition (GI50) with HT-29 colon cancer cells and in the data set on A375 melanoma cells were > 1000 nM and 100 to 1000 nM, respectively.

With `O=C(O)CCN1CC(NC(=O)c2ccncc2Nc2ccc(I)cc2F)C1` [Compound 18, 3-(3-(3-((2-fluoro-4-iodophenyl)amino)isonicotinamido)azetidin-1-yl)propanoic acid], the GI50 in the data set on A375 melanoma cells is > 1000 nM.

In the case of `CN1CC(NC(=O)c2c(F)cncc2Nc2ccc(I)cc2F)C1` [Compound 7, 3-fluoro-5-((2-fluoro-4-iodophenyl)amino)-N-(1-methylazetidin-3-yl)isonicotinamide], the GI50 in the data set on A375 melanoma cells was < 100 nM. In the data set with P-glycoprotein (MDR1), the efflux ratio at 120 min was 0.58, the apparent permeability from apical to basolateral (Papp A→B) at 120 min came to 32.5 ×10⁻⁶ cm/s and the Papp B→A at 120 min was determined as 19 ×10⁻⁶ cm/s.

For `O=C(NC1CN(CCF)C1)c1c(F)cncc1Nc1ccc(I)cc1F` [Compound 9, 3-fluoro-5-((2-fluoro-4-iodophenyl)amino)-N-(1-(2-fluoroethyl)azetidin-3-yl)isonicotinamide], the GI50 in the data set on HT-29 colon cancer cells was < 100 nM.

As to `O=C(NC1CNC1)c1c(F)cncc1Nc1ccc(I)cc1F` [Compound 5, N-(azetidin-3-yl)-3-fluoro-5-((2-fluoro-4-iodophenyl)amino)isonicotinamide], the GI50 in the data set on HT-29 colon cancer cells was < 100 nM. In the data set with A375 melanoma cells, the GI50 was < 100 nM. Also, in the data set on P-glycoprotein (MDR1), the efflux ratio at 120 min stood at 3.42, the Papp A→B at 120 min is 10.5 ×10⁻⁶ cm/s and the Papp B→A at 120 min was 36 ×10⁻⁶ cm/s.

In the case of `O=C(NC1CNC1)c1c(F)cncc1Nc1ccc(Br)cc1Cl` [Compound 14, N-(azetidin-3-yl)-3-((4-bromo-2-chlorophenyl)amino)-5-fluoroisonicotinamide], the results for the GI50 in the data set on HT-29 colon cancer cells and with A375 melanoma cells were > 1000 nM and 100 to 1000 nM, respectively.

On to `C#Cc1ccc(Nc2cncc(F)c2C(=O)NC2CNC2)c(F)c1` [Compound 11, N-(azetidin-3-yl)-3-((4-ethynyl-2-fluorophenyl)amino)-5-fluoroisonicotinamide], for which the 50% growth inhibitory concentration (GI50) with HT-29 colon cancer cells was < 100 nM. Moreover, the concentration for 50% growth inhibition (GI50) in the data set on A375 melanoma cells is < 100 nM. Further, in data set [1], the efflux ratio at 120 min came out at 2.33, the Papp A→B at 120 min was found to be 8.79 ×10⁻⁶ cm/s and the basolateral-to-apical permeability (Papp B→A) at 120 min came out at 20.5 ×10⁻⁶ cm/s. In data set [2], the F is given as 93.1 ± 6.0%, the Vd was determined as 67.7 ± 13.9 L/kg, the half-life is 542 ± 41.4 min and the clearance is 86 ± 12 mL/min/kg. Moreover, in data set [2], the AUC worked out at 4550 ± 301 ng·h/mL, the Cmax was 1700 ± 95 ng/mL and the Tmax came to 40.2 ± 17.4 min. In addition, in the data set with P-glycoprotein (MDR1), the efflux ratio at 120 min amounted to 4.08, the Papp A→B at 120 min was found to be 14.6 ×10⁻⁶ cm/s and the apparent permeability from basolateral to apical (Papp B→A) at 120 min is 59.5 ×10⁻⁶ cm/s.

Regarding `O=C(NC1CNC1)c1c(F)cc(F)cc1Nc1ccc(I)cc1F` [Compound 1, N-(azetidin-3-yl)-2,4-difluoro-6-((2-fluoro-4-iodophenyl)amino)benzamide], the GI50 in the data set on HT-29 colon cancer cells is > 1000 nM; with A375 melanoma cells it was 100 to 1000 nM.

Consider `O=C(NC1CCNC1)c1c(F)cc(F)cc1Nc1ccc(I)cc1F` (stereo not shown) [Compound 2, 2,4-difluoro-6-((2-fluoro-4-iodophenyl)amino)-N-(pyrrolidin-3-yl)benzamide], for which the GI50 in the data set on A375 melanoma cells was > 1000 nM.

With `O=C(NC1CNC1)c1c(Cl)cncc1Nc1ccc(I)cc1F` [Compound 13, N-(azetidin-3-yl)-3-chloro-5-((2-fluoro-4-iodophenyl)amino)isonicotinamide], in the data set with A375 melanoma cells, the GI50 was < 100 nM. Besides, in the data set on P-glycoprotein (MDR1), the efflux ratio at 120 min came out at 11.8, the Papp A→B at 120 min was 4.3 ×10⁻⁶ cm/s and the Papp B→A at 120 min came out at 50.8 ×10⁻⁶ cm/s.

The values are drawn from patent US20240083844A1, “KINASE INHIBITORS AND USES THEREOF” (ABM Therapeutics Corporation, priority 2020, published 2024).
